Experiment in all cases: NCI tumour cell line growth inhibition, 48 h
Assay [1] concerns A498.
Assay [2] has as its system ACHN.
Assay [3] concerns CAKI-1.
Assay [4] relates to HCC 2998.
In assay [5] the test system is HL-60.
Assay [6] has as its system HOP-92.
Assay [7] relates to Hs-578T.
In assay [8] the test system is MCF7.
Assay [9] relates to MDA-MB-231.
Assay [10] has as its system MOLT-4.
For assay [11], the system named is NCI-H460.
In assay [12] the test system is OVCAR-5.
Assay [13] deals with PC-3.
In assay [14] the test system is RPMI-8226.
The test system of assay [15] is SK-MEL-28.
Assay [16] deals with SK-OV-3.
The test system of assay [17] is SR.
The test system of assay [18] is SW-620.
Assay [19] has as its system UACC-62.
For assay [20], the system named is UO-31.

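Briefly, cells in 96-well plates were exposed to five compound concentrations for 48 h, and endpoints were estimated by linear interpolation. GI50 is the concentration that inhibits growth by half.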 Calls of active or inactive are those of the source. Cut-off read from the data, not from the text of the source: active = GI50 up to about 1.1 µM and inactive = higher.

Take `C[C@@H]1CC[C@@]2(NC1)O[C@H]1C[C@H]3[C@@H]4CC[C@H]5C[C@@H](O)CC[C@]5(C)[C@H]4CC[C@]3(C)[C@H]1[C@@H]2C`: the GI50 in [1] was 68.7 µM (inactive); in [2], 33.6 µM (inactive); in assay [3] it was > 100 µM (inactive); in assay [4], 37.2 µM (inactive); in assay [5] it was 21.6 µM (inactive); in assay [6] it was 93.5 µM (inactive). The GI50 was 46 µM (inactive) in assay [7]; 51.5 µM (inactive) in assay [8]; 38.1 µM (inactive) in assay [9]; > 100 µM (inactive) in assay [10]; 54.3 µM (inactive) in [11]; > 100 µM (inactive) in assay [12]. Besides, the GI50 in assay [13] was 82.4 µM (inactive); in assay [14] it was 31.2 µM (inactive); in [15] it was > 100 µM (inactive); in [16], 27.4 µM (inactive); in [17], 35.5 µM (inactive); in [18], 88.9 µM (inactive). The GI50 was 57.3 µM (inactive) in assay [19] and 42.3 µM (inactive) in assay [20].
With `COc1ccc(/C=C(\C(=C/c2ccc(OC)cc2)[N+](=O)[O-])[N+](=O)[O-])cc1`, the GI50 was 30.3 µM (inactive) in assay [1]; 5.96 µM (inactive) in assay [2]; 3.18 µM (inactive) in [3]; 15.5 µM (inactive) in assay [4]; 0.261 µM (active) in assay [5]; 3.84 µM (inactive) in assay [6]. Besides, the GI50 in [7] is 4.18 µM (inactive); in assay [8] it was 6.31 µM (inactive); in assay [9], 2.07 µM (inactive); in assay [10] it was 2.96 µM (inactive); in [11], 5.64 µM (inactive); in assay [12] it was 10.3 µM (inactive). For the same molecule, the GI50 in assay [13] is 5.85 µM (inactive); in assay [14], 3.15 µM (inactive); in assay [15] it was 2.31 µM (inactive); in assay [16] it was 16.6 µM (inactive); in assay [17], 2.03 µM (inactive); in assay [18] it was 2.52 µM (inactive). Besides, the GI50 in [19] is 2.91 µM (inactive); in [20], 4.53 µM (inactive).
Turning to `COC1=CC(=O)c2c(O)c3c(c(O)c2C1=O)CC(C)(O)OC3` (stereo not given) [FUSARUBIN], the GI50 in assay [1] is 9.66 µM (inactive); in assay [2], 2.95 µM (inactive); in assay [3], 3.73 µM (inactive); in [4] it was 2.99 µM (inactive); in assay [5], 2.42 µM (inactive); in assay [6] it was 2.88 µM (inactive). The GI50 in assay [7] is 2.38 µM (inactive); in assay [8], 1.34 µM (inactive); in [9], 2.84 µM (inactive); in assay [10], 2.64 µM (inactive); in assay [11], 1.18 µM (inactive); in assay [12], 4.46 µM (inactive). For the same molecule, the GI50 in assay [13] was 2.52 µM (inactive); in [14], 6.37 µM (inactive); in assay [15], 6.11 µM (inactive); in assay [16], 18.2 µM (inactive); in [17], 5.36 µM (inactive); in assay [18], 3.75 µM (inactive). The GI50 is 2.07 µM (inactive) in [19] and 3.97 µM (inactive) in [20].
As for `COCn1cnc2c(=O)n(-c3ccc(C)cc3)c(=S)n(-c3ccc(C)cc3)c21`, the GI50 in assay [1] is > 100 µM (inactive); in [2], > 100 µM (inactive); in assay [3], > 100 µM (inactive); in assay [4], > 100 µM (inactive); in assay [5], > 100 µM (inactive); in assay [6], 71.8 µM (inactive). For the same molecule, the GI50 in assay [7], in assay [8], in [9], in assay [10], in assay [11] and in assay [12] was > 100 µM (inactive) each time. In addition, the GI50 in [13], in assay [14], in assay [15], in assay [16], in assay [17] and in assay [18] was > 100 µM (inactive) in each case. The results for the GI50 in [19] and in [20] were > 100 µM (inactive) and 38.6 µM (inactive), respectively.
As for `CC1(C)CCCCCCCCCC(C)(CCCCCCCCCCCCO)C1=O` (stereo not given), the GI50 in [1] is 18.7 µM (inactive); in assay [2] it was 15 µM (inactive); in assay [3], 20.7 µM (inactive); in [4], 0.655 µM (active); in assay [5], 15.7 µM (inactive); in [6], 16.9 µM (inactive). The GI50 in assay [7] is 19.7 µM (inactive); in assay [8] it was 16.8 µM (inactive); in assay [9] it was 15.3 µM (inactive); in assay [10] it was 27.2 µM (inactive); in assay [11], 18.3 µM (inactive); in assay [12], 18.5 µM (inactive). Also, the GI50 was 17.4 µM (inactive) in assay [13]; 18.7 µM (inactive) in assay [14]; 18.2 µM (inactive) in assay [15]; 18.8 µM (inactive) in assay [16]; 55.3 µM (inactive) in [17]; 18.3 µM (inactive) in assay [18]. The GI50 in [19] is 18.3 µM (inactive); in [20] it was 18 µM (inactive).
Take `Cc1ccc2ccccc2c1CSc1nc(N)nc2c1ncn2CC(C)C`: the GI50 was 26.9 µM (inactive) in [1]; 16.4 µM (inactive) in assay [2]; 17 µM (inactive) in assay [3]; 19.3 µM (inactive) in [4]; 16.2 µM (inactive) in assay [5]; 17.8 µM (inactive) in assay [6]. The GI50 in assay [7] was > 35.2 µM (inactive); in assay [8], 12.9 µM (inactive); in assay [9] it was > 30.9 µM (inactive); in [10], 4.73 µM (inactive); in assay [11], 14.2 µM (inactive); in assay [12], 96.2 µM (inactive). The GI50 in [13] was 13.9 µM (inactive); in assay [14], 5.65 µM (inactive); in [15] it was 55.8 µM (inactive); in [16] it was 30.5 µM (inactive); in assay [17], 4.79 µM (inactive); in assay [18], 24.7 µM (inactive). Also, the GI50 in assay [19] is 26.3 µM (inactive); in assay [20], 2.79 µM (inactive).
As for `CC[C@@]1(O)C(=O)OCc2c1cc1n(c2=O)Cc2cc3c(NC(=O)CN)cccc3nc2-1`, the GI50 in assay [1] was 0.481 µM (active); in assay [2], 0.0521 µM (active); in assay [3] it was < 0.01 µM (active); in assay [4], 1.96 µM (inactive); in assay [5] it was < 0.0362 µM (active); in [6] it was 3.48 µM (inactive). Further, the GI50 is > 36.2 µM (inactive) in [7]; 0.0466 µM (active) in assay [8]; 14.5 µM (inactive) in assay [9]; < 0.0199 µM (active) in assay [10]; < 0.0318 µM (active) in assay [11]; 7.8 µM (inactive) in assay [12]. Also, the GI50 in [13] is 4.92 µM (inactive); in assay [14], 1.88 µM (inactive); in [15], 7.05 µM (inactive); in [16] it was 0.13 µM (active); in assay [17] it was < 0.01 µM (active); in [18], 2.07 µM (inactive). The GI50 in [19] is 0.0506 µM (active); in [20] it was 0.191 µM (active).
Turning to `Cc1ccc2c(O)c3c(cc2c1)C(=O)c1c2c(cc(O)c1C3=O)C1(C)OC(O2)C(O)C(N(C)C)C1O` (stereo not given), the GI50 in [1] is 1.28 µM (inactive); in assay [2], 0.605 µM (active); in [3] it was 0.794 µM (active); in assay [4], 1.19 µM (inactive); in [5] it was 0.155 µM (active); in assay [6], 1.01 µM (active). For the same molecule, the GI50 in [7] is 1.02 µM (active); in assay [8], 0.287 µM (active); in [9], 1.33 µM (inactive); in assay [10], 0.124 µM (active); in assay [11], 0.109 µM (active); in assay [12] it was 1.97 µM (inactive). Besides, the GI50 is 1.05 µM (active) in assay [13]; 0.29 µM (active) in [14]; 1.32 µM (inactive) in assay [15]; 1.09 µM (active) in [16]; 0.0452 µM (active) in assay [17]; 1.02 µM (active) in assay [18]. Moreover, the GI50 in [19] was 1.07 µM (active); in assay [20], 1.27 µM (inactive).
`CN(N=O)C(=O)Nc1ccc(C(=O)O)cc1`: the GI50 in assay [1], in assay [2], in [3], in [4], in assay [5] and in assay [6] was > 100 µM (inactive) each time. Moreover, the GI50 in assay [7], in [8], in assay [9], in assay [10], in assay [11] and in assay [12] was > 100 µM (inactive) in each case. For the same molecule, the GI50 in assay [13], in [14], in assay [15], in assay [16], in [17] and in [18] was > 100 µM (inactive) each time. The GI50 in assay [19] and in assay [20] was > 100 µM (inactive) each time.
For `Cc1cc(-c2nc3ccc(F)cc3s2)ccc1NC(=O)C(N)CCCCN` (stereo not given), the GI50 is 11 µM (inactive) in assay [1]; 12.7 µM (inactive) in assay [2]; 9.64 µM (inactive) in assay [3]; 1.26 µM (inactive) in assay [4]; 2.9 µM (inactive) in assay [5]; 8.2 µM (inactive) in [6]. Further, the GI50 was 5.12 µM (inactive) in assay [7]; 0.0184 µM (active) in [8]; 9.38 µM (inactive) in assay [9]; 2.34 µM (inactive) in [10]; 1.82 µM (inactive) in [11]; 7.64 µM (inactive) in assay [12]. The GI50 was 9.53 µM (inactive) in assay [13]; 3.31 µM (inactive) in assay [14]; 18.4 µM (inactive) in assay [15]; 13.3 µM (inactive) in assay [16]; 1.96 µM (inactive) in [17]; 2.9 µM (inactive) in assay [18]. Besides, the GI50 in assay [19] is 10.8 µM (inactive); in assay [20], 2.69 µM (inactive).

The values are drawn from ChEMBL document CHEMBL1201862, “PubChem BioAssay data set” (2004).
